The record followed here is ChEMBL document CHEMBL1140676, “Evaluation of broad spectrum protein kinase inhibitors to probe the architecture of the malarial cyclin dependent protein kinase Pfmrk” (Bioorg Med Chem Lett, 2007).

Molecules are shown by their SMILES. Where only a bound is given, the exact number is not on record here.

One may read the IC50 as the concentration at which inhibition is half-maximal.

One assay deals with T1, Protein kinase Pfmrk (Plasmodium falciparum, UniProt P90584).
T1 sequence (P90584 whole entry): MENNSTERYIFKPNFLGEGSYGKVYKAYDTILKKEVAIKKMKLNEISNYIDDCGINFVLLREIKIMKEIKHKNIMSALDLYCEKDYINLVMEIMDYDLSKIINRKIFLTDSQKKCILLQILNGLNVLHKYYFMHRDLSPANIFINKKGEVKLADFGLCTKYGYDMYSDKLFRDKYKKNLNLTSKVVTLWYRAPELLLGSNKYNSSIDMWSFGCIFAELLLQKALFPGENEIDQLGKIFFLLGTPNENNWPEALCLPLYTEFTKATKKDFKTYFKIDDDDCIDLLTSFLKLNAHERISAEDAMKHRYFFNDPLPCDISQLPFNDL
As to the kind of experiment: Inhibition of Plasmodium falciparum Pfmrk.

Assay [1] relates to Plasmodium falciparum. As to the kind of experiment: Antimalarial activity against drug-resistant Plasmodium falciparum D6. Format: functional, organism-based.
For assay [2], the system named is Plasmodium falciparum. Description: Antimalarial activity against drug-resistant Plasmodium falciparum W2. The class given is functional, organism-based.

For `O=S(=O)(NCCNC/C=C/c1ccc(Br)cc1)c1cccc2cnccc12`, the IC50 against Protein kinase Pfmrk was more than 500 µM; in the assay with Plasmodium falciparum [1], 4.8 µM; in the assay with Plasmodium falciparum [2], 2.1 µM.
The corresponding values for `C[C@H]1CNCCN1S(=O)(=O)c1cccc2cnccc12` are more than 500 µM, more than 69 µM and 5.4 µM.
`N=C(N)NCCNS(=O)(=O)c1cccc2cnccc12` had an IC50 at Protein kinase Pfmrk of more than 500 µM.
Turning to `CNCCNS(=O)(=O)c1cccc2cnccc12`, the IC50 on Protein kinase Pfmrk was 70 µM; in the assay with Plasmodium falciparum [1], more than 74 µM; with Plasmodium falciparum [2] it was more than 37 µM.
In the case of `O=S(=O)(c1cccc2c(I)cccc12)N1CCCNCC1`, the IC50 against Protein kinase Pfmrk was more than 500 µM.
On the same count and under the same terms, with `NCCCCNS(=O)(=O)c1cccc2c(Cl)cccc12` the figure was more than 500 µM; with `NCCCCNS(=O)(=O)c1ccc2ccccc2c1`, more than 500 µM.
With `NCCNS(=O)(=O)c1cccc2cnccc12`, the IC50 against Protein kinase Pfmrk was 0.7 µM; in the assay on Plasmodium falciparum [1], more than 72 µM; in the assay with Plasmodium falciparum [2] it was more than 72 µM.
Consider `NCCCCCCNS(=O)(=O)c1cccc2c(Cl)cccc12`, for which the IC50 against Protein kinase Pfmrk was more than 500 µM; in the assay on Plasmodium falciparum [1], 8.8 µM; in the assay on Plasmodium falciparum [2] it was 15 µM.
Compound `O=S(=O)(c1cccc2c(Cl)cccc12)N1CCCNCC1` showed an IC50 on Protein kinase Pfmrk of more than 500 µM.
For `O=S(=O)(c1cccc2cnccc12)N1CCNCC1`, the IC50 is more than 500 µM at Protein kinase Pfmrk, more than 36 µM in the assay with Plasmodium falciparum [1] and 4.3 µM with Plasmodium falciparum [2].
Compound `O=S(=O)(c1cccc2cnccc12)N1CCCNCC1` [FASUDIL] returned an IC50 at Protein kinase Pfmrk of more than 500 µM.
